According to patent US11478457B2, “Castration-resistant prostate cancer” (priority 2015, dated 2022):

Target: T1, UDP-glucose dehydrogenase (Homo sapiens, UniProt O60701)
T1 sequence (O60701 1-494): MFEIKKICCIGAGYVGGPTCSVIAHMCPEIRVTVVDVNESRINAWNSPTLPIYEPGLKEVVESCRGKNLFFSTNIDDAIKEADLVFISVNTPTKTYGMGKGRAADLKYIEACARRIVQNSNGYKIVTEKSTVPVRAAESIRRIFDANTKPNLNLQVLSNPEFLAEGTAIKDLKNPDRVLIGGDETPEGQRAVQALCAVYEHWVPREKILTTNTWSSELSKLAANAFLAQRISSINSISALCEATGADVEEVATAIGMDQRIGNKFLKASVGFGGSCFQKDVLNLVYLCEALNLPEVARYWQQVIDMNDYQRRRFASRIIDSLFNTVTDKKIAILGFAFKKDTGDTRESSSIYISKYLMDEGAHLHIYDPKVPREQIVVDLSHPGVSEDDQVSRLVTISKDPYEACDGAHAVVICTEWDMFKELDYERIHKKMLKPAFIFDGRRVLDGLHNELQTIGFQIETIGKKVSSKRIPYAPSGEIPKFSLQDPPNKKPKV
Assay: High throughput screening for inhibitors of UDP-glucose dehydrogenase (NADH fluorescence)
Assay type: biochemical
Details: for inhibition at 25 µg/mL (stock): compound plates 20 μL/well of 25 μg/mL compound in 2.5% DMSO, relative to DMSO negative and UDP-xylose positive controls, higher POC = more inhibitory

[1] = read-out: POC (Percent of Controls)

| Structure (SMILES) | inhibition at 25 µg/mL (stock) [1] | also measured |
| --- | --- | --- |
| Nc1ncc(C2=C(Cl)C(O)C(Cl)=C(Cl)C2O)s1 (centres unmarked) | 71% | – |
| Cc1ccc(OCCn2ccnc2)cc1 | 85% | – |
| COc1ccc2[nH]cc(CCNC(=O)c3ccc([N+](=O)[O-])cc3)c2c1 | 61% | – |
| O=C(O[C@@H]1Cc2c(O)cc(O)cc2O[C@@H]1c1cc(O)c(=O)c2c(O)c(O)cc([C@H]3Oc4cc(O)cc(O)c4C[C@H]3O)c2c1)c1cc(O)c(O)c(O)c1 | 76% | – |
| O=C(Nc1ccc2nc(-c3ccco3)c(-c3ccco3)nc2c1)N1CCOCC1 | 47% | – |
| COc1ccc(-c2ccc(CCC(=O)O)o2)cc1 | 57% | – |
| COCc1cc(C(C)(C)C)c(O)c(O)c1C(C)(C)C | 56% | – |
| O=C(Cc1ccccc1)c1ccc(O)c(O)c1O | 46% | – |
| O=C(O)c1cc(O)c(O)c(O)c1 | 71% | – |
| O=C([O-])c1ccccc1-c1c2cc(Br)c(=O)cc-2oc2[c]([Hg][OH])c([O-])c(Br)cc12.[Na+].[Na+] | – | POC (Percent of Controls): 97% |
| CCc1c(C)sc(NC(=O)c2cccc([N+](=O)[O-])c2C)c1C(N)=O | 58% | – |
| O=c1oc2cc(Br)c(O)c(Br)c2s1 | 51% | – |
| O=C1CC(Sc2ccccn2)C(=O)N1c1cccc(Cl)c1Cl (centres unmarked) | 49% | – |
| CN(C)c1ccc(NC(=O)C2C3C=CC(C3)C2C(=O)O)cc1 (centres unmarked) | 56% | – |
| c1ccc(CNc2nc(-c3ccccc3)[n+](-c3ccccc3)s2)cc1 | 106% | – |
| O=C(/C=C/c1ccco1)c1ccc(NC(=O)c2ccco2)cc1 | 55% | – |
| O=C1CC(Sc2nc3ccccc3s2)C(=O)N1c1ccccc1I (centres unmarked) | 58% | – |
| COc1ccc(NS(=O)(=O)c2cc(C(=O)Nc3ccc(C(=O)O)cc3)ccc2C)cc1 | 61% | – |
| N#CSC(C#N)Cc1cccc([N+](=O)[O-])c1 (centres unmarked) | 88% | – |
| O=c1c(O)cccc2ccc(O)c(O)c12 | 73% | – |
| O=c1c(O)c(-c2cc(O)c(O)c(O)c2)oc2cc(O)cc(O)c12 | 91% | – |
| Nc1ccc(Cc2ccc(N)c(O)c2)cc1O | 62% | – |
| Cc1nnc(SC2CC(=O)N(c3ccc(Oc4ccccc4)cc3)C2=O)s1 (centres unmarked) | 58% | – |

| Structure (SMILES) | inhibition at 25 µg/mL (stock) [1] | also measured |
| --- | --- | --- |
| c1ccc(Nc2nc(-c3ccccc3)[n+](-c3ccccc3)s2)cc1 | 52% | – |
| O=[N+]([O-])c1ccc(SCc2ccco2)c2cccnc12 | 57% | – |
| Nc1ccc(S(=O)(=O)c2ccc(N)c(N)c2)cc1N | 50% | – |
| NC(=O)c1c(-c2cccs2)csc1N | 46% | – |
| O=C(O[C@@H]1Cc2c(O)cc(O)cc2O[C@@H]1c1cc(O)c(O)c(O)c1)c1cc(O)c(O)c(O)c1 | 76% | – |
| CCc1c(C)sc(NC(=O)c2ccoc2C)c1C(N)=O | 50% | – |
| CCC(=O)Nc1ccc(C(=O)Nc2ccc(Cl)cc2C(=O)O)cc1 | 50% | – |
| COC(=O)Oc1c(Cl)cc2oc(=O)sc2c1[N+](=O)[O-] | 73% | – |
| O=C1C(Cl)=C(Cl)C(=O)C(Cl)=C1Cl | – | inhibition at 25 µg/mL [1]: 79% |
| O=C(Nc1ccc2c(c1)OCCO2)c1cc2ccccc2o1 | 103% | – |
| O=C1CC(Sc2nnnn2-c2ccccc2)C(=O)N1c1ccc([N+](=O)[O-])cc1 (centres unmarked) | 73% | – |
| COc1ccc(-c2nnc(N)o2)cc1 | 86% | – |
| N#CSc1cnc(NC2CCCCC2)s1 | 66% | – |
| CCc1cccc(NC(=O)NC2CCCCC2)c1 | 45% | – |
| N#CSC(C#N)Cc1cccc(Cl)c1 (centres unmarked) | 74% | – |
| O=c1c(O)cccc2c([C@H]3Oc4cc(O)cc(O)c4C[C@H]3O)cc(O)c(O)c12 | 53% | – |
| CC(=O)NC(CC(=O)c1ccc(Cl)cc1Cl)C(Cl)(Cl)Cl (centres unmarked) | 86% | – |
| O=C(O[C@@H]1Cc2c(O)cc(O)cc2O[C@@H]1c1cc(O)c(O)c(O)c1-c1c([C@H]2Oc3cc(O)cc(O)c3C[C@H]2O)cc(O)c(O)c1O)c1cc(O)c(O)c(O)c1 | 83% | – |
| O=C(Nc1ccc([N+](=O)[O-])cc1)c1ccc(Br)o1 | 62% | – |
| O=C(O[C@@H]1Cc2c(O)cc(O)cc2O[C@@H]1c1cc(O)c(O)c(O)c1-c1c([C@H]2Oc3cc(O)cc(O)c3C[C@H]2OC(=O)c2cc(O)c(O)c(O)c2)cc(O)c(O)c1O)c1cc(O)c(O)c(O)c1 | 73% | – |
| CC(C)c1cc2c(c(O)c1O)[C@@]1(C(=O)O)CCCC(C)(C)C1CC2 (some centres unmarked) | 66% | – |
| O=C(CN1CCCCC1)Nc1ccc(S(=O)(=O)N2CCOCC2)cc1 | 48% | – |
| COc1cc(/C=C(\C)[N+](=O)[O-])cc(OC)c1OC | 61% | – |

| Structure (SMILES) | inhibition at 25 µg/mL (stock) [1] | also measured |
| --- | --- | --- |
| COc1ccc(-c2ccc(CCC(=O)O)[nH]2)cc1 | 62% | – |
| Cc1ccc(S(=O)(=O)Nc2cccc3ccc(-n4nc(C)cc4C)nc23)cc1 | 148% | – |
| CCCCC(NC(=O)c1cccc(Br)c1)C(=O)O (centres unmarked) | 103% | – |
| Cc1ccc(-c2ccc(CCC(=O)O)o2)cc1 | 82% | – |
| O=[N+]([O-])c1ccc2[nH]c(-c3ccco3)nc2c1 | 46% | – |
| O=c1c(-c2cc(O)c(O)c(O)c2)coc2cc(O)c(O)c(O)c12 | 98% | – |
| O=C1c2ccc(O)cc2O[C@H](c2cc(O)c(O)c(O)c2)[C@H]1O | 96% | – |
| O=C(Nc1nc2c(s1)CCCC2)c1cccs1 | 45% | – |
| CC1(C)CC(=O)C2=C(C1)OC(N)=C(C#N)C21CCCC1 | 126% | – |
| Cc1ccccc1-c1nnc(N)s1 | 51% | – |
| CCc1ccc(NC(Nc2ccc(CC)cc2)=C(S(=O)(=O)CC)S(=O)(=O)CC)cc1 | 47% | – |
| COc1cc(-c2ccc(NC(=O)c3ccoc3C)c(OC)c2)ccc1NC(=O)c1ccoc1C | 45% | – |
| O=c1c(O)cc([C@H]2Oc3cc(O)cc(O)c3C[C@H]2O)cc2c([C@H]3Oc4cc(O)cc(O)c4C[C@H]3O)cc(O)c(O)c12 | 83% | – |
| CC(=O)C1=C(C)NC(SCc2cccc([N+](=O)[O-])c2)=C(C#N)C1c1cccnc1 (centres unmarked) | 51% | – |
| O=C(O)COc1cccc(/C=C/[N+](=O)[O-])c1 | 67% | – |
| N#CSC(C#N)Cc1ccccc1 (centres unmarked) | 59% | – |
| Brc1ccc(C2Nc3ccccc3N2)o1 | 65% | – |
| CC(=O)Oc1cc(-c2coc3cc(OC(C)=O)c(OC(C)=O)c(OC(C)=O)c3c2=O)cc(OC(C)=O)c1OC(C)=O | 98% | – |
| Cc1cc(C)n(-c2ccc3cccc([N+](=O)[O-])c3n2)n1 | 88% | – |
| O=C(Oc1cc(O)cc2c1C[C@@H](OC(=O)c1cc(O)c(O)c(O)c1)[C@@H](c1cc(O)c(O)c(O)c1)O2)c1cc(O)c(O)c(O)c1 | 67% | – |
| NC(=O)c1c(NC(=O)C2CCCO2)sc2c1CCCCCC2 (centres unmarked) | 74% | – |
| Cc1cc(O)ccc1NC(=O)c1ccccc1 | 46% | – |
| COc1ccc(-c2ccc(CCC(=O)O)n2-c2ccc(O)cc2)cc1 | 57% | – |

| Structure (SMILES) | inhibition at 25 µg/mL (stock) [1] | also measured |
| --- | --- | --- |
| CN1CCc2c(sc(N)c2C#N)C1 | 55% | – |
| Cc1sc(NC(=O)Cc2ccc([N+](=O)[O-])cc2)c(C(N)=O)c1C | 75% | – |
| CCSc1sc(SC#N)cc1SC#N | 83% | – |
| O=C(O[C@@H]1Cc2c(O)cc(O)cc2O[C@@H]1c1cc(O)c(=O)c2c(O)c(O)cc([C@H]3Oc4cc(O)cc(O)c4C[C@H]3OC(=O)c3cc(O)c(O)c(O)c3)c2c1)c1cc(O)c(O)c(O)c1 | 59% | – |
| CC/C(=C/c1ccc(O)c(OC)c1)[N+](=O)[O-] | 63% | – |
| CC(C)N(CCC#N)S(=O)(=O)c1ccccc1[N+](=O)[O-] | 81% | – |
| Nc1ccc(C(=O)c2ccc(N)c(N)c2)cc1N | 46% | – |
| Cc1ccc(-c2csc(N)c2C(N)=O)cc1C | 47% | – |
| CCC(C)(O)c1nnn(-c2nonc2N)c1C(C)(O)CC (centres unmarked) [drawing 178] | 101% | – |
| N#CSC(C#N)Cc1ccc([N+](=O)[O-])cc1 (centres unmarked) | 80% | – |
| N#Cc1ccc(Oc2ccc(C(=O)Nc3ccccc3)cc2)cc1 | 54% | – |
| COc1ccc(OC)c(N2C(=O)CC(Sc3nc4ccccc4s3)C2=O)c1 (centres unmarked) | 68% | – |
| O=C(O)CCc1ccc(-c2cccs2)o1 [drawing 227] | 87% | – |
| CCN(CC)c1ccc(N)c(C)c1 | 46% | – |
| CCOc1ccc(N/C(=N/N)c2ccc3ccccc3n2)cc1 | 66% | – |
| COc1cc(NC(=O)COc2ccc(C)cc2C)ccc1NC(=O)c1ccco1 | 70% | – |
| Cc1[nH]nc(-c2ccc(O)c(O)c2O)c1Oc1ccccc1 | 46% | – |
| CC(C)(C)C(=O)NCCNc1ccc([N+](=O)[O-])cc1 | 47% | – |
| O=C(OC[C@H]1O[C@H](OC(=O)c2cc(O)c(O)c(OC(=O)c3cc(O)c(O)c(O)c3)c2)[C@H](OC(=O)c2cc(O)c(O)c(OC(=O)c3cc(O)c(O)c(O)c3)c2)[C@@H](OC(=O)c2cc(O)c(O)c(OC(=O)c3cc(O)c(O)c(O)c3)c2)[C@@H]1OC(=O)c1cc(O)c(O)c(OC(=O)c2cc(O)c(O)c(O)c2)c1)c1cc(O)c(O)c(OC(=O)c2cc(O)c(O)c(O)c2)c1 | 69% | – |
| Nc1ccccc1S(=O)(=O)Nc1cccc2cccnc12 | 72% | – |
